In US12128038B2, “Method of treatment of organic acidemias and other mitochondria defects or deficiencies” (University of Pittsburgh-Of the Commonwealth System of …, priority 2020, dated 2024):

Columns and labels:
Assay type in all cases: cell-based, human
[1] = tested on: PA patient (859) fibroblasts; assay: Mitochondrial superoxide production by MitoSOX Red assay (flow cytometry); conditions: PA cells, treatment for 24 h
Protocol: (§1) Cells Culture and Treatments: Fibroblast from a healthy control (826) and a PA patient (859) were grown in DMEM with glucose supplemented with 10% FBS, and 4 mM glutamine. Control and PA cells were treated either with JP4-039, CLP, or DMSO (vehicle control) for 24 h and then harvested for analysis.
Mitochondrial Superoxide production and Mitochondrial Mass: 150,000 Cells were incubated with MitoSOX Red (5 μM) and MitoTracker Green (150 nM) for 20 min at 37° C. and then analyzed by FACSAriall Flow cytometer.
FIG. 2. Superoxide levels detected by MitoSOX Red assay (A, B and C) and Mitochondrial mass detected by MitoTracker Green (D, E and F) in PA and healthy control cells with and without treatment for 24 h (A, B and C). Data shown here are means±SD and are normalized to WT mean value. ****P<0.0001, ***P<0.001, **P<0.01, *P<0.05 compared between the groups shown using unpaired t test for samples from a single biological replicate and minimum of at least three technical replicates.

[2] = tested on: PA (859) fibroblast cell line; assay: Mitochondrial respiration (oxygen consumption rate), Seahorse XFe96 Extracellular Flux Analyzer; conditions: PA cells, treatment for 24 h, Seahorse OCR
Protocol: as §1
Measurement of Mitochondria Respiration: Oxygen consumption rate (OCR) was measured with a Seahorse XFe96 Extracellular Flux Analyzer, Seahorse Bioscience, Billerica, MA.
FIG. 3. Effect of JP4-039 and CLP on basal respiration of control (826) and PA (859) fibroblast cell line. Data shown here are means±SEM and are normalized to protein amount mean value. ****P<0.0001 and ***P<0.001 compared between the groups shown using unpaired t test for samples from a single biological replicate and 8 technical replicates.

[3] = tested on: cells from patients with inborn errors of energy metabolism; assay: Cellular bioenergetics and reactive oxygen on incubation with antioxidants

O=C(O)CCC(=O)O [succinate]
superoxide level [1]: reduced
basal respiration [2]: reduced

O=C(O)CC(O)(CC(=O)O)C(=O)O [citrate]
superoxide level [1]: reduced
basal respiration [2]: reduced

CC(C)C[C@@H](/C=C/[C@H](Cc1ccccc1)C(=O)N1CCC[C@H]1C(=O)N[C@H](C(=O)N[C@@H](CCCNC(=O)OCc1ccccc1)C(=O)NC1CC(C)(C)N([O])C(C)(C)C1)C(C)C)NC(=O)OC(C)(C)C [XJB-5-131]
cellular bioenergetics [3]: improve
reactive oxygen [3]: improve
